From patent publication US10941379B2, “Microbial system for biosynthesis of natural and engineered products coupled to in situ extraction in supercritical CO2” (Massachusetts Institute of Technology, priority 2016, dated 2021)

Assays:
Type in all cases: cell-based, Bacillus megaterium
[1] = tested on: B. megaterium SR7 spores; assay: Flow cytometry germination assay (Syto16/PI); settings: PBS amended with 2.5, 25, 250 mM
Method: FCM was employed as a high-throughput germination assay based on Baier et al., (2010). Triplicate cultures of B. megaterium SR7 spores loaded at OD600 0.01 were incubated overnight in PBS and PBS amended with 2.5-250 mM L-alanine, along with cell-free PBS controls. Prior to loading on the flow cytometer (BD FACS Canto II HTS-1; Becton Dickinson; Franklin Lakes, N.J.) cultures were diluted 1/50 in PBS and stained with Syto16® and propidium iodide (PI) in the dark for at least 30 minutes prior to analysis. After spore and media-only samples were used to set forward scatter, side-scatter, Syto16 and PI gates, sample data was collected and analyzed using […]™ software (BD Biosciences; Franklin Lakes, N.Y.).

[2] = tested on: B. megaterium SR7 spores; assay: Spore germination and growth under scCO2 with germination inducers
Method: SR7 growth outcomes were investigated under scCO2 headspace (90-100 atm; 37° C.) while shaking at 250 rpm. SR7 spores were inoculated at starting concentrations of ˜3×10^4 spores/ml (unless otherwise specified) in either 50 mM K2HPO4-buffered LB (P-LB) or M9+ media (Table 1). Experiments assaying the effect of germination induction included 100 mM L-alanine and 10 mM L-leucine media amendments and heat treatment upon reactor pressurization (70° C. for 10 minutes). Incubations were conducted in 316 stainless steel vessels and gradually pressurized to supercritical conditions using a CO2/He cylinder, as previously described. SR7 germination was verified by the identification of vegetative cell morphologies using fluorescence microscopy of Syto9-stained cultures. Growth was defined by an increase of at least 10-fold growth in cell counts relative to t0.
In order to ascertain whether L-alanine, L-leucine, and heat treatment induce germination under scCO2 headspace, three replicate experiments were conducted comparing growth for SR7 spores when loaded in media P-LB, P-LBL, P-LBAL, or P-LBA±heat treatment (Table 1; Table 2). Reactors were depressurized and scored for germination and growth by fluorescence microscopy, as previously described.
Cell densities of P-LB and L-PBA incubations from the three experiments (Table 3; Incubations A-C) were subjected to statistical analysis to establish the significance of 100 mM L-alanine on spore growth outcomes. A non-parametric Wilcoxon/Kruskal-Wallis Test was performed on the dataset (JMP® Pro v.12; SAS Cary, N.C.) where growth outcome (growth/no growth) and cell density fold change (relative to t0) were dependent variables and incubation time and inducer presence/absence (±100 mM L-alanine) were independent variables. […]

[3] = tested on: B. megaterium SR7 spores; assay: Spore germination induction in PBS under 1 atm CO2 (fluorescence microscopy, bulk fluorescence); settings: 100 mM, 8.5 hour endpoint (maximum)
Method: The role of candidate germination inducers was subsequently investigated in PBS buffer rather than growth medium to decouple the germination process from outgrowth. B. megaterium SR7 spores were loaded in triplicate 10 ml PBS amended with 100-250 mM L-alanine, 100 mM L-alanine with heat treatment, 25 mM L-leucine, or an unamended PBS control. The extent of germination was measured by fluorescence microscopy staining patterns (e.g., the degree of cell membrane penetration by DNA stain), bulk fluorescence, OD600, and flow cytometry (FCM). A total of 100-300 cells per filter were counted and categorized as either “dormant” or “germinated” if the spore stain was localized to the cell membrane or diffused within the interior of the cell, respectively (Cronin and Wilkinson, 2007). Cells displaying an intermediate degree of stain dispersal (“activated”) were categorized as germinated (FIG. 1).
Sub-sample bulk fluorescence (Syto9®) was measured by microplate reader (BioTek Synergy 2; 485/20 excitation, 528/20 emission) and OD600 was measured by microplate reader. OD should decrease in germinated cells (the index of refraction decreases due to hydration upon spore coat degradation) while bulk fluorescence should increase as the nucleic acid stain progressively penetrates and permeates the cell (Magge et al., 2009). […]

[4] = tested on: B. megaterium SR7 spores; assay: Spore germination in LB under 1 atm CO2; settings: 100 mM L-alanine-amended LB, unamended cultures grew between 4.5 and 6 hours
Method: The ability to induce spore germination based on literature precedent was tested by inoculating triplicate 10 ml cultures of SR7 spores at OD600 0.01 in LB amended with 100 mM L-alanine, LB subjected to a heat activation (65° C. for 15 minutes) upon inoculation, or unamended LB as a control. Growth was scored by OD600 and LB agar CFU plate counts. In addition, subsamples were heat-killed by exposure to 80° C. for 10 minutes (Setlow, 2006) prior to plating, to ascertain remaining spore concentrations, as heat exposure is lethal to vegetative cells.

[5] = tested on: B. megaterium SR7; assay: Biolog GenIII sole carbon source growth; settings: Table 11
Method: Plates were incubated at 37° C. on a plate shaker at 200 rpm and assayed for growth using NADH-dependent colorimetric changes measured by OD490 on a microplate reader (BioTek Synergy 2; BioTek; Winooski, Vt.).

[6] = tested on: B. megaterium SR7 spores; assay: Delayed germination induction in PBS under 1 atm CO2 (bulk fluorescence, OD600); settings: 9.5 hours after delayed induction in PBS; for OD600 Fold Decrease: OD decrease indicative of germination
Method: Sub-sample bulk fluorescence (Syto9®) was measured by microplate reader (BioTek Synergy 2; 485/20 excitation, 528/20 emission) and OD600 was measured by microplate reader. OD should decrease in germinated cells (the index of refraction decreases due to hydration upon spore coat degradation) while bulk fluorescence should increase as the nucleic acid stain progressively penetrates and permeates the cell (Magge et al., 2009). To test for germination after a delayed inducer spike rather than at the moment of inoculation, B. megaterium SR7 spores loaded at OD600 0.01 were incubated overnight in 30 ml of PBS, passaged into PBS amended with L-alanine (25-250 mM) or L-leucine (10-25 mM) and then assayed for germination by bulk fluorescence and OD600 during incubation.

[7] = tested on: B. megaterium SR7; assay: M9 supplemented growth under 1 atm CO2 (OD600); settings: amendment to M9 base medium, 1 atm CO2, scored by OD600
From the text: Development of a minimal medium enables individual chemical components to be tuned in order to establish optimized growth from a sole carbon source under 1 atm CO2. Initial attempts to generate B. megaterium SR7 growth in triplicate cultures tested various amendments to M9 base medium (thelabrat.com; Table 1), including 0.4% glucose or 0.4% xylose amendments as sole carbon sources, with or without trace metals solution (Boone et al., 1989). The 1× concentration trace metals solution consisted of (in g/l): 0.005 Na2(EDTA), 0.0002 NiSO4.6H2O, 0.0005 CoCl2.6H2O, 0.0001H2FeO3, 0.001 FeSO4.7H2O, 0.0001H3BO3, 0.001 ZnCl2, 0.0001 NaMoO4.2H2O, 0.0004 AlCl3.6H2O, 0.001 MnCl2.4H2O, 0.0003 Na2NO4.2H2O, 0.0002 CaCl2. To further boost growth, triplicate cultures of M9+0.4% glucose were amended with dilute LB (0.001-0.01×) or yeast extract (YE; 0.001-0.01×) as de facto vitamin and co-factor solutions, and/or NaNO3 (5 mM) as an alternative electron acceptor. All M9 incubations were scored for growth by OD600 and designated as robust above OD600>0.600, low level between 0.2-0.6, and no growth below 0.2. Passaged vegetative cultures were also assayed in duplicate for growth (by OD600) amended with a range (0.1×, 0.25×, 1×) of trace metals solutions in M9+0.4% glucose+0.01×YE media, including in the presence and absence of 5 mM NaNO3.

SMILES | Spores gated as germinated (Syto16/PI fluorescence) ([1]; PBS only 3.7%) | Spores gated as activated (Syto16/PI fluorescence) ([1]; PBS only 22.0%) | Growth frequency of cultures under scCO2 ([2]; pooled incubations, 18-20 days, unamended reactors 36%) [%] | Growth frequency of cultures under scCO2 ([2]; with heat treatment) [%] | Bulk fluorescence relative to PBS only incubated spores [3] [fold] | Time to germination [4] [h] | Growth in carbon source Biolog plate, +Metals ([5]; trace metals-amended plate) | Growth in carbon source Biolog plate, I ([5]; unamended plate trial I) | Growth in carbon source Biolog plate, II ([5]; unamended plate trial II) | Fluorescence Fold Increase ([6]; 25 mM inducer) [fold] | OD600 Fold Decrease ([6]; 25 mM inducer) [fold] | Fluorescence Fold Increase ([6]; 100 mM inducer) [fold] | OD600 Fold Decrease ([6]; 100 mM inducer) [fold] | Fluorescence Fold Increase ([6]; 250 mM inducer) [fold] | OD600 Fold Decrease ([6]; 250 mM inducer) [fold] | Growth [7]
C[C@H](N)C(=O)O [L-alanine] | 1.38-31.8% | 44-69% | 63 | 50 | 2.4 | ≤ 4.5 | + | + | + | 2.1 | 1.5 | 1.4 | 1.2 | 1.4 | 1.2 | –
O=C[C@H](O)[C@@H](O)[C@H](O)CO [0.4% Xylose, Xylose] | – | – | – | – | – | – | – | – | – | – | – | – | – | – | – | − (no growth below 0.2)
